Data reported in the supplement of paper PMC11061612.

What was measured:
COLO-792 (Melanoma) = assay: combination Emax (second highest fraction inhibited in the dose matrix, 72 h); higher = more inhibition; extreme values may be limits of the assay
Summary of the method: (§1)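 Cell lines in DMEM/F12 or RPMI with 10% FBS were plated in 1536-well plates, held 24 hours at 37°C, 5% CO2, then given two-drug dose matrices for 72 hours (DMSO typically 0.2%). Viability was read by CellTiter-Glo 2.0 luminescence and scaled as inhibition from 0 (vehicle wells) to 1 (blank wells). Combination Emax is the second-highest inhibition in the matrix; Bliss excess is observed combination effect minus expected EA + EB − EA·EB, EA and EB being single-agent effects.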

[1] = test system: JIMT-1 (Breast Carcinoma); assay: as above
Summary of the method: as §1

IM-9 (Non-Cancerous) = assay: as above
Summary of the method: as §1

769-P (Kidney Carcinoma) = assay: as above
Summary of the method: as §1

EW-16 (Ewing's Sarcoma) = assay: as above
Summary of the method: as §1

WM1552C (Melanoma) = assay: as above
Summary of the method: as §1

MKN1 (Gastric Carcinoma) [2] = assay: as above
Summary of the method: as §1

[3] = test system: NCI-H841 (Small Cell Lung Carcinoma); assay: as above
Summary of the method: as §1

[4] = test system: Jurkat (T-Lymphoblastic Leukemia); assay: as above
Summary of the method: as §1

[5] = test system: NCI-H1651 (Lung Adenocarcinoma); assay: as above
Summary of the method: as §1

[6] = test system: 22RV1 (Prostate Carcinoma); assay: as above
Summary of the method: as §1

MKN1 (Gastric Carcinoma) [7] = assay: Bliss excess, mean over the matrix (fraction); higher = more synergy
Summary of the method: as §1

[8] = test system: NCI-H841 (Small Cell Lung Carcinoma); assay: as above
Summary of the method: as §1

KP-N-YN (Neuroblastoma) = assay: combination Emax (second highest fraction inhibited in the dose matrix, 72 h); higher = more inhibition; extreme values may be limits of the assay
Summary of the method: as §1
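Throughout, for Bliss excess, mean over the matrix: after 72 h of two-drug dosing.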

Row | Structure (SMILES) | combination Emax (COLO-792 (Melanoma)) | combination Emax [1] | combination Emax (IM-9 (Non-Cancerous)) | combination Emax (769-P (Kidney Carcinoma)) | combination Emax (EW-16 (Ewing's Sarcoma)) | combination Emax (WM1552C (Melanoma)) | combination Emax (MKN1 (Gastric Carcinoma) [2]) | combination Emax [3] | combination Emax [4] | combination Emax [5] | combination Emax [6] | Bliss excess (MKN1 (Gastric Carcinoma) [7]) | Bliss excess [8] | combination Emax (KP-N-YN (Neuroblastoma))
1 | CN(C)CCCOc1ccc(-c2ccc3ncc4c(c3c2)n(C2CCOCC2)c(=O)n4C)cn1 [AZD0156] + O=C(c1cc(Cc2n[nH]c(=O)c3ccccc23)ccc1F)N1CCN(C(=O)C2CC2)CC1 [Olaparib] (first compound max 3 µM, partner max 3 µM) | 0.294 | 0.0881 | 0.656 | 0.16 | 0.412 | 0.324 | 0.307 | 0.208 | 0.511 | 0.493 | 0.483 | 0.0242 | -0.0483 | 
2 | C=CCn1c(=O)c2cnc(Nc3ccc(N4CCN(C)CC4)cc3)nc2n1-c1cccc(C(C)(C)O)n1 [AZD1775] + C1CN(CCC1(C(=O)N[C@@H](CCO)C2=CC=C(C=C2)Cl)N)C3=NC=NC4=C3C=CN4 [Capivasertib] (first compound max 3 µM, partner max 3 µM) | 0.651 | 0.76 | 1 | 0.665 | 0.888 | 0.719 | 0.821 | 0.676 | 0.986 | 0.794 | 0.616 | -0.0236 | -0.0788 | 
3 | COc1nnc2ccc(N3CCC(c4ccc(OCCN5CCN(C)C(=O)[C@H]5C)cc4)CC3)nn12 [AZD5153] + C=CCn1c(=O)c2cnc(Nc3ccc(N4CCN(C)CC4)cc3)nc2n1-c1cccc(C(C)(C)O)n1 [AZD1775] (first compound max 1 µM, partner max 1 µM) | 0.856 | 0.622 | 0.975 | 0.956 | 0.679 | 0.439 | 0.926 | 0.503 | 0.983 | 0.822 | 0.529 | 0.0363 | -0.0299 | 0.924
4 | COc1nnc2ccc(N3CCC(c4ccc(OCCN5CCN(C)C(=O)[C@H]5C)cc4)CC3)nn12 [AZD5153] + CC1(C)CCC(CN2CCN(c3ccc(C(=O)NS(=O)(=O)c4ccc(NCC5CCOCC5)c([N+](=O)[O-])c4)c(Oc4cnc5[nH]ccc5c4)c3)CC2)=C(c2ccc(Cl)cc2)C1 [Venetoclax] (first compound max 1 µM, 7x7, partner max 1 µM) | 0.583 | 0.311 | 0.859 | 0.701 | 0.464 | 0.397 | 0.57 | 0.317 | 0.679 | 0.257 | 0.486 | -0.0062 | -0.0317 | 0.673
5 | COc1nnc2ccc(N3CCC(c4ccc(OCCN5CCN(C)C(=O)[C@H]5C)cc4)CC3)nn12 [AZD5153] + CCN(CCO)CCCOc1ccc2c(Nc3cc(CC(=O)Nc4cccc(F)c4)[nH]n3)ncnc2c1 [AZD2811] (first compound max 1 µM, 7x7, partner max 1 µM) | 0.563 | 0.382 | 0.897 | 0.711 | 0.553 | 0.444 | 0.807 | 0.428 | 0.745 | 0.499 | 0.522 | -0.0033 | 0.0001 | 0.616
6 | COc1nnc2ccc(N3CCC(c4ccc(OCCN5CCN(C)C(=O)[C@H]5C)cc4)CC3)nn12 [AZD5153] + C[C@@H]1COCCN1C2=NC(=NC(=C2)C3(CC3)[S@](=N)(=O)C)C4=C5C=CNC5=NC=C4 [AZD6738] (first compound max 1 µM, 7x7, partner max 10 µM) | 0.72 | 0.77 | 0.963 | 0.977 | 0.747 | 0.546 | 0.936 | 0.73 | 0.985 | 0.767 | 0.645 | 0.0483 | 0.0202 | 0.955
7 | COc1nnc2ccc(N3CCC(c4ccc(OCCN5CCN(C)C(=O)[C@H]5C)cc4)CC3)nn12 [AZD5153] + Cc1c2c(nn1C)CSCc1cc(n(C)n1)CSc1cc(c3ccccc3c1)OCCCc1c(C(=O)O)n(C)c3c-2c(Cl)ccc13 [AZD5991] (first compound max 1 µM, 7x7, partner max 1 µM) | 1 | 0.611 | 0.886 | 0.727 | 0.486 | 0.888 | 0.866 | 0.565 | 1 | 0.515 | 0.857 | 0.0194 | -0.0119 | 0.449
8 | CC1(C)CCC(CN2CCN(c3ccc(C(=O)NS(=O)(=O)c4ccc(NCC5CCOCC5)c([N+](=O)[O-])c4)c(Oc4cnc5[nH]ccc5c4)c3)CC2)=C(c2ccc(Cl)cc2)C1 [Venetoclax] + CS(=O)(=O)CCNCc1ccc(-c2ccc3ncnc(Nc4ccc(OCc5cccc(F)c5)c(Cl)c4)c3c2)o1 [Lapatinib] (first compound max 1 µM, 7x7, partner max 10 µM) |  |  | 0.958 | 0.909 |  | 0.187 | 0.433 | 0.13 |  | 0.129 | 0.266 | -0.0194 | -0.0506 | 0.57
